According to ChEMBL document CHEMBL1201862, “PubChem BioAssay data set” (2004):
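Growth conditions: 96-well plates. Treatment: test compound, 48 hours, 5 concentrations. Analysis: linear interpolation between bracketing concentrations; unreached endpoints set to highest concentration. GI50 marks 50% less growth.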 Activity calls are given as the source filed them. Rule as the data show it: active = GI50 up to about 1.1 µM and inactive = higher.

Columns and labels:
Assay in all cases: NCI-60 cell line screen, 48 h
EKVX = tested on: EKVX
NCI-H23 = tested on: NCI-H23
SK-MEL-2 = tested on: SK-MEL-2
U-251 = tested on: U-251
HT-29 = tested on: HT-29
SK-MEL-28 = tested on: SK-MEL-28
HCC 2998 = tested on: HCC 2998
KM12 = tested on: KM12
UACC-257 = tested on: UACC-257
OVCAR-3 = tested on: OVCAR-3
CCRF-CEM = tested on: CCRF-CEM
Malme-3M = tested on: Malme-3M
MOLT-4 = tested on: MOLT-4
OVCAR-8 = tested on: OVCAR-8
HL-60 = tested on: HL-60
COLO 205 = tested on: COLO 205
MCF7 = tested on: MCF7

Measured: GI50

C=CCOCCC(CC=C)C(=O)CC(=O)OC (centres undefined)
inactive: EKVX > 100 µM | NCI-H23 > 100 µM | SK-MEL-2 > 100 µM | U-251 > 100 µM | HT-29 > 100 µM | SK-MEL-28 > 100 µM | HCC 2998 > 100 µM | KM12 > 100 µM | UACC-257 > 100 µM | OVCAR-3 > 100 µM | CCRF-CEM 4.23 µM | Malme-3M > 100 µM | MOLT-4 28.5 µM | OVCAR-8 > 100 µM | HL-60 13.5 µM

CN1CC[C@]2(C)c3c(O)cccc3CC3CCCC1C32C (some centres undefined)
inactive: EKVX > 100 µM | NCI-H23 > 100 µM | SK-MEL-2 > 100 µM | U-251 > 100 µM | HT-29 > 100 µM | COLO 205 > 100 µM | SK-MEL-28 > 100 µM | HCC 2998 15.8 µM | KM12 > 100 µM | UACC-257 > 100 µM | OVCAR-3 > 100 µM | CCRF-CEM > 100 µM | Malme-3M > 100 µM | MOLT-4 > 100 µM | OVCAR-8 > 100 µM | HL-60 96.2 µM

O=c1c(-c2ccccc2)c2oc(c1-c1ccccc1)CS(=O)(=O)CCC2
inactive: EKVX > 100 µM | NCI-H23 17.6 µM | SK-MEL-2 > 100 µM | HT-29 25.5 µM | COLO 205 21 µM | SK-MEL-28 17.5 µM | HCC 2998 > 10 µM | KM12 32.2 µM | UACC-257 28.8 µM | OVCAR-3 22.6 µM | CCRF-CEM 23.8 µM | Malme-3M 49.4 µM | MOLT-4 24.2 µM | OVCAR-8 36.8 µM | HL-60 25.6 µM

COc1ccc(/C=C2\C(=O)N(C(=O)c3ccc(NC(C)=O)cc3)N=C2C)cc1
inactive: EKVX > 100 µM | NCI-H23 > 100 µM | SK-MEL-2 > 100 µM | HT-29 > 100 µM | COLO 205 > 100 µM | SK-MEL-28 > 100 µM | HCC 2998 > 100 µM | KM12 > 100 µM | UACC-257 > 100 µM | OVCAR-3 > 100 µM | CCRF-CEM > 100 µM | Malme-3M > 100 µM | MOLT-4 > 100 µM | OVCAR-8 > 100 µM | HL-60 > 100 µM

Cc1ccc(C#CS(=O)(=O)C(F)(F)F)cc1
inactive: EKVX > 100 µM | NCI-H23 > 100 µM | SK-MEL-2 > 100 µM | MCF7 > 100 µM | U-251 > 100 µM | HT-29 > 100 µM | COLO 205 > 100 µM | SK-MEL-28 > 100 µM | HCC 2998 > 100 µM | KM12 > 100 µM | UACC-257 > 100 µM | OVCAR-3 > 100 µM | CCRF-CEM > 100 µM | Malme-3M > 100 µM | MOLT-4 > 100 µM | OVCAR-8 > 100 µM | HL-60 > 31.6 µM

Cc1ccc(S(=O)(=O)N(C=O)N=C2CCN(Cc3ccccc3)CC2)cc1
inactive: EKVX > 100 µM | NCI-H23 > 100 µM | SK-MEL-2 > 100 µM | U-251 > 100 µM | HT-29 > 100 µM | COLO 205 > 100 µM | HCC 2998 > 100 µM | KM12 > 100 µM | UACC-257 > 100 µM | OVCAR-3 > 100 µM | CCRF-CEM > 100 µM | Malme-3M > 100 µM | MOLT-4 > 100 µM | OVCAR-8 > 100 µM | HL-60 > 100 µM

N#CC1=C(O)NC(O)=C(C#N)C1c1c(Cl)cccc1Cl
inactive: EKVX 40.7 µM | NCI-H23 29.4 µM | SK-MEL-2 18.8 µM | U-251 32.7 µM | HT-29 39.4 µM | COLO 205 37.1 µM | SK-MEL-28 22.2 µM | HCC 2998 7.93 µM | KM12 22.1 µM | UACC-257 35.2 µM | OVCAR-3 32.9 µM | CCRF-CEM > 100 µM | Malme-3M 23.1 µM | MOLT-4 > 100 µM | OVCAR-8 20.2 µM | HL-60 81.5 µM

Cn1nc(-c2ccccc2)c2c(/C=C/c3ccc(Cl)cc3)onc2c1=O
inactive: EKVX > 100 µM | NCI-H23 > 100 µM | U-251 33.7 µM | HT-29 34.4 µM | COLO 205 30.8 µM | SK-MEL-28 51.3 µM | CCRF-CEM 27.7 µM | MOLT-4 > 100 µM | OVCAR-8 16.7 µM

Nc1ccccc1S(=O)(=O)c1ccccc1
inactive: EKVX > 100 µM | NCI-H23 > 100 µM | SK-MEL-2 > 100 µM | U-251 > 100 µM | HT-29 > 100 µM | COLO 205 > 100 µM | SK-MEL-28 > 100 µM | HCC 2998 > 100 µM | KM12 > 100 µM | UACC-257 > 100 µM | OVCAR-3 > 100 µM | CCRF-CEM > 100 µM | Malme-3M > 100 µM | MOLT-4 > 100 µM | OVCAR-8 > 100 µM | HL-60 > 100 µM
